# Reference: PMC5263201, “GABAA receptor occupancy by subtype selective GABAAα2,3 modulators: PET studies in humans” (Psychopharmacology, 2016)
# Read-outs that look alike come from different tables or passages of the source.
# Legend:
# [1] = target: GABAA α1β2γ2; design: method as in Christian et al 2015; details: recombinant Sf9 membranes α1β2γ2; [3H]flunitrazepam; mean (SD); ref Christian et al 2015; read-out: Affinity in vitro at BZ binding site (Ki) α1; cited from earlier work
# [2] = system: GABAA α2β3γ2; design: method as in Christian et al 2015; details: 1µM test concentration, GABA EC10, % of 1 µM diazepam, mean ±SE, ref Christian et al 2015; cited from earlier work
# [3] = system: GABAA α5β3γ2; design: method as in Christian et al 2015; details: 1µM test concentration, GABA EC10, % of 1 µM diazepam, mean ±SE, ref Christian et al 2015; cited from earlier work
# [4] = AZD6280; ref parallel multiple ascending dose study; cited from earlier work
# [5] = target: GABAA α5β3γ2; design: method as in Christian et al 2015; details: recombinant Sf9 membranes α5β3γ2; [3H]flunitrazepam; mean (SD); ref Christian et al 2015; read-out: Affinity in vitro at BZ binding site (Ki) α5; cited from earlier work
# [6] = target: GABAA α3β3γ2; design: method as in Christian et al 2015; details: recombinant Sf9 membranes α3β3γ2; [3H]flunitrazepam; mean (SD); ref Christian et al 2015; read-out: Affinity in vitro at BZ binding site (Ki) α3; cited from earlier work
# [7] = system: GABAA α1β2γ2; design: method as in Christian et al 2015; details: 1µM test concentration, GABA EC10, % of 1 µM diazepam, mean ±SE, ref Christian et al 2015; cited from earlier work
# [8] = target: GABAA α2β3γ2; design: method as in Christian et al 2015; details: recombinant Sf9 membranes α2β3γ2; [3H]flunitrazepam; mean (SD); ref Christian et al 2015; read-out: Affinity in vitro at BZ binding site (Ki) α2; cited from earlier work
# [9] = target: P-gp (Homo sapiens, UniProt P08183); assay: P-gp substrate assessment; type: in vitro ADME
# Sequence of P-gp (P08183 whole entry): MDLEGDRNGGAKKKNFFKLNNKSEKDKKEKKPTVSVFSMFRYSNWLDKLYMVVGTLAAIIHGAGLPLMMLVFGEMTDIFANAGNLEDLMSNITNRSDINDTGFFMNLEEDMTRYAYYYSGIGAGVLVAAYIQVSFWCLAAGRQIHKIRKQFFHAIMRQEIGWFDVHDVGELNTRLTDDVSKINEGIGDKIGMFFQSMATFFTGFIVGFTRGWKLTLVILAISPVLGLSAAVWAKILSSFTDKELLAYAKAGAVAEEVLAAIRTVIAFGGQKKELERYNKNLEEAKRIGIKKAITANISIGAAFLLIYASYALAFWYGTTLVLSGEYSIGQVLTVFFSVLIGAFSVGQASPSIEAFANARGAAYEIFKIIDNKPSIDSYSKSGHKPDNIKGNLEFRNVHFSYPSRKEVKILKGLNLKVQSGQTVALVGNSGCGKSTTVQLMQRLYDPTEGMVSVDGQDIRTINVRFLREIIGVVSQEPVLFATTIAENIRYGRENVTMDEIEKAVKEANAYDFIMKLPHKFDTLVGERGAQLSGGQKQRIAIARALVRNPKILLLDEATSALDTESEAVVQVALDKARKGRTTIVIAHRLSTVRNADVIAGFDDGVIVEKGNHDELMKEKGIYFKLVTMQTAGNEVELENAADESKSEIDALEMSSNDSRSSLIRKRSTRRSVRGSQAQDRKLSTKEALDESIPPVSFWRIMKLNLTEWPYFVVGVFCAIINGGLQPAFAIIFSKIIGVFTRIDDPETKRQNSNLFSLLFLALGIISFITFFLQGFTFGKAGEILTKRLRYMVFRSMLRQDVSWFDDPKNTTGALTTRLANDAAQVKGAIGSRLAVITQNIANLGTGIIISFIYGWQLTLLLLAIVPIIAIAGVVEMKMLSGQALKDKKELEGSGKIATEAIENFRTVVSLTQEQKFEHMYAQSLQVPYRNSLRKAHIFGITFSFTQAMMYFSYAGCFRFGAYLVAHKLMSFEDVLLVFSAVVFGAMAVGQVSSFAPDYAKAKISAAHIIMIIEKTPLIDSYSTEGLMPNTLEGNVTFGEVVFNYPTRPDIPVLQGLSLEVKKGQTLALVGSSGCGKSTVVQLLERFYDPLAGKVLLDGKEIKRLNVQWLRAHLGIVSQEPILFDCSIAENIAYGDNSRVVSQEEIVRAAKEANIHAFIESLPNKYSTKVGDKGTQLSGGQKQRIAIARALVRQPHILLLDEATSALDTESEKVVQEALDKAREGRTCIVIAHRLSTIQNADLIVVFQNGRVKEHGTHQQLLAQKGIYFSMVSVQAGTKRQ
# [10] = design: method as in AstraZeneca Single Ascending Dose studies; details: 6 subjects, ref AstraZeneca Single Ascending Dose studies, cited from earlier work
# [11] = system: generalized anxiety disorder; design: method as in Chen et al. 2014, ClinTrials.gov; details: ref Chen et al. 2014, ClinTrials.gov; cited from earlier work
structure (smiles),measurement,setting,value
CCCNC(=O)c1nnc2c(-c3cc(OC)ccc3OC)cccc2c1N [AZD6280],Ki,[1],0.5 ± 0.2 nM
same,Relative efficacy (%DZ) α2,[2],36±4%
same,Relative efficacy (%DZ) α5,[3],8±2%
same,maximum tolerated dose (MTD),[4],40 mg
same,Ki,[5],1680 ± 650 nM
same,Ki,[6],31 ± 17 nM
same,Relative efficacy (%DZ) α1,[7],9±3%
same,Ki,[8],21 ± 5 nM
same,P-gp substrate,[9],Neither compound is a P-gp substrate
CCCNC(=O)c1nnc2c(-c3c(F)cccc3OC)cccc2c1N [AZD7325],Number of subjects with at least one adverse event,[10]; AZD7325 0.2 mg,2 (33) Number (%) of patients
same,anxiety,[10]; AZD7325 0.2 mg,0 Number (%) of patients
same,dizziness,[10]; AZD7325 0.2 mg,0 Number (%) of patients
same,euphoric mood,[10]; AZD7325 0.2 mg,0 Number (%) of patients
same,hypoaesthesia,[10]; AZD7325 0.2 mg,0 Number (%) of patients
same,paraesthesia,[10]; AZD7325 0.2 mg,0 Number (%) of patients
same,somnolence,[10]; AZD7325 0.2 mg,0 Number (%) of patients
same,Number of subjects with at least one adverse event,[10]; AZD7325 1mg,2 (33) Number (%) of patients
same,anxiety,[10]; AZD7325 1mg,0 Number (%) of patients
same,dizziness,[10]; AZD7325 1mg,0 Number (%) of patients
same,euphoric mood,[10]; AZD7325 1mg,0 Number (%) of patients
same,hypoaesthesia,[10]; AZD7325 1mg,0 Number (%) of patients
same,paraesthesia,[10]; AZD7325 1mg,0 Number (%) of patients
same,somnolence,[10]; AZD7325 1mg,0 Number (%) of patients
same,Number of subjects with at least one adverse event,[10]; AZD7325 5mg,4 (67) Number (%) of patients
same,anxiety,[10]; AZD7325 5mg,0 Number (%) of patients
same,dizziness,[10]; AZD7325 5mg,0 Number (%) of patients
same,euphoric mood,[10]; AZD7325 5mg,0 Number (%) of patients
same,hypoaesthesia,[10]; AZD7325 5mg,1 (17) Number (%) of patients
same,paraesthesia,[10]; AZD7325 5mg,0 Number (%) of patients
same,somnolence,[10]; AZD7325 5mg,1 (17) Number (%) of patients
same,Number of subjects with at least one adverse event,[10]; AZD7325 10 mg,2 (33) Number (%) of patients
same,anxiety,[10]; AZD7325 10 mg,0 Number (%) of patients
same,dizziness,[10]; AZD7325 10 mg,2 (33) Number (%) of patients
same,euphoric mood,[10]; AZD7325 10 mg,0 Number (%) of patients
same,hypoaesthesia,[10]; AZD7325 10 mg,0 Number (%) of patients
same,paraesthesia,[10]; AZD7325 10 mg,0 Number (%) of patients
same,somnolence,[10]; AZD7325 10 mg,0 Number (%) of patients
same,Number of subjects with at least one adverse event,[10]; AZD7325 20 mg,1 (17) Number (%) of patients
same,anxiety,[10]; AZD7325 20 mg,0 Number (%) of patients
same,dizziness,[10]; AZD7325 20 mg,0 Number (%) of patients
same,euphoric mood,[10]; AZD7325 20 mg,1 (17) Number (%) of patients
same,hypoaesthesia,[10]; AZD7325 20 mg,0 Number (%) of patients
same,paraesthesia,[10]; AZD7325 20 mg,0 Number (%) of patients
same,somnolence,[10]; AZD7325 20 mg,0 Number (%) of patients
same,Number of subjects with at least one adverse event,[10]; AZD7325 30 mg,3 (50) Number (%) of patients
same,anxiety,[10]; AZD7325 30 mg,0 Number (%) of patients
same,dizziness,[10]; AZD7325 30 mg,1 (17) Number (%) of patients
same,euphoric mood,[10]; AZD7325 30 mg,1 (17) Number (%) of patients
same,hypoaesthesia,[10]; AZD7325 30 mg,0 Number (%) of patients
same,paraesthesia,[10]; AZD7325 30 mg,0 Number (%) of patients
same,somnolence,[10]; AZD7325 30 mg,1 (17) Number (%) of patients
same,Number of subjects with at least one adverse event,[10]; AZD7325 50 mg,1 (50) Number (%) of patients
same,anxiety,[10]; AZD7325 50 mg,0 Number (%) of patients
same,dizziness,[10]; AZD7325 50 mg,0 Number (%) of patients
same,euphoric mood,[10]; AZD7325 50 mg,0 Number (%) of patients
same,hypoaesthesia,[10]; AZD7325 50 mg,0 Number (%) of patients
same,paraesthesia,[10]; AZD7325 50 mg,0 Number (%) of patients
same,somnolence,[10]; AZD7325 50 mg,0 Number (%) of patients
same,Number of subjects with at least one adverse event,[10]; AZD7325 75 mg,4 (67) Number (%) of patients
same,anxiety,[10]; AZD7325 75 mg,0 Number (%) of patients
same,dizziness,[10]; AZD7325 75 mg,0 Number (%) of patients
same,euphoric mood,[10]; AZD7325 75 mg,3 (50) Number (%) of patients
same,hypoaesthesia,[10]; AZD7325 75 mg,0 Number (%) of patients
same,paraesthesia,[10]; AZD7325 75 mg,1 (17) Number (%) of patients
same,somnolence,[10]; AZD7325 75 mg,0 Number (%) of patients
same,Number of subjects with at least one adverse event,[10]; AZD7325 100 mg,4 (67) Number (%) of patients
same,anxiety,[10]; AZD7325 100 mg,1 (17) Number (%) of patients
same,dizziness,[10]; AZD7325 100 mg,2 (33) Number (%) of patients
same,euphoric mood,[10]; AZD7325 100 mg,1 (17) Number (%) of patients
same,hypoaesthesia,[10]; AZD7325 100 mg,0 Number (%) of patients
same,paraesthesia,[10]; AZD7325 100 mg,0 Number (%) of patients
same,somnolence,[10]; AZD7325 100 mg,1 (17) Number (%) of patients
same,anxiolytic effect in patients with generalized anxiety disorder,[11],only a weak anxiolytic effect
